In patent US7589097B2, “Triazol[4,5-d] pyramidine derivatives and their use as purinergic receptor antagonists” (Vernalis Research Limited, priority 2001, dated 2009):

target: human adenosine A2A receptors (Homo sapiens, UniProt P29274); experiment: Binding affinities at hA2A receptors, displacement of [3H]-CGS 21680
Source text: Adenosine Receptor Binding Binding Affinities at hA2A Receptors

Chain of human adenosine A2A receptors (P29274 whole entry): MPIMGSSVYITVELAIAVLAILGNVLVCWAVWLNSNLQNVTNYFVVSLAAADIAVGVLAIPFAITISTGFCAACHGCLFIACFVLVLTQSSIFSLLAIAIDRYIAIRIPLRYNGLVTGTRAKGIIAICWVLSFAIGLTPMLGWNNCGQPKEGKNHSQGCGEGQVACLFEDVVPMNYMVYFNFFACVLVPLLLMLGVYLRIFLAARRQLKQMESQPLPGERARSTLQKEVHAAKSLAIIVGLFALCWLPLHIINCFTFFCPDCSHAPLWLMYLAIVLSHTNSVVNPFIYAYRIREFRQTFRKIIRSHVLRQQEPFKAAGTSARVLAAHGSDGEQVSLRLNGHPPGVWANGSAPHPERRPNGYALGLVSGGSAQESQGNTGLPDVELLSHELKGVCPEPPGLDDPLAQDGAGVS

**Q.** With `Nc1nc(-c2ccco2)c2nnn(Cc3cc(I)ccc3F)c2n1` [Example 169, 3-(2-fluoro-5-iodobenzyl)-7-(2-furyl)-3H-[1,2,3]triazolo[4,5-d]pyrimidine-5-amine] as the compound, how does the Ki read?
**A.** 2 nM

**Q.** For `Nc1nc(-c2ccco2)c2nnn(Cc3cc([N+](=O)[O-])ccc3F)c2n1` [Example 78, 3-(2-fluoro-5-nitrobenzyl)-7-(2-furyl)-3H-[1,2,3]triazolo[4,5-d]pyrimidine-5-amine], which Ki is on record?
**A.** 3 nM

**Q.** Which Ki does the source give for `Nc1nc(-c2ccco2)c2nnn(Cc3ccccc3[N+](=O)[O-])c2n1` [Example 12, 7-(2-furyl)-3-(2-nitrobenzyl)-3H-[1,2,3]triazolo[4,5-d]pyrimidine-5-amine] here?
**A.** 7 nM

system: not given; experiment: not given

**Q.** Which melting point does the source give for `CC(=O)NCc1cccc(Cn2nnc3c(-c4ccco4)nc(N)nc32)n1` [Example 177, 3-(6-Acetamidomethyl-2-pyridylmethyl)-7-(2-furyl)-3H-[1,2,3]triazolo[4,5-d]pyrimidine-5-amine] here?
**A.** 245.9 to 247 °C

**Q.** With `CC(=O)NCc1cccc(Cn2nnc3c(-c4ccco4)nc(N)nc32)c1` [Example 68, N-(3-(5-amino-7-(2-furyl)-3H-[1,2,3]triazolo[4,5-d]pyrimidin-3-ylmethyl)benzyl)acetamide] as the compound, how does the melting point read?
**A.** 228.1 to 229.3 °C

**Q.** With `COc1ccccc1Cn1nnc2c(-c3ccc(C)o3)nc(N)nc21` [Example 72, 3-(2-methyoxybenzyl)-7-(5-methyl-2-furyl)-3H-[1,2,3]triazolo[4,5-d]pyrimidine-5-amine] as the compound, how does the melting point read?
**A.** 195.4 to 196.5 °C

**Q.** With `CC(=O)NCc1ccccc1Cn1nnc2c(-c3ccco3)nc(N)nc21` [Example 178, N-(2-(5-amino-7-(2-furyl)-3H-[1,2,3]triazolo[4,5-d]pyrimidin-3-ylmethyl)benzyl)acetamide] as the compound, how does the melting point read?
**A.** 216.7 to 218.4 °C

**Q.** With `Nc1nc(-c2ccco2)c2nnn(Cc3ccccn3)c2n1` [Example 24, 7-(2-Furyl)-3-(2-pyridylmethyl)-3H-[1,2,3]triazolo[4,5-d]pyrimidine-5-amine] as the compound, how does the melting point read?
**A.** 196.9 to 197.1 °C

**Q.** For `Cc1cc(Cn2nnc3c(-c4ccco4)nc(N)nc32)cc(C)c1[N+](=O)[O-]` [Example 259, 3-(3,5-dimethyl-4-nitrobenzyl)-7-(2-furyl)-3H-[1,2,3]triazolo[4,5-d]pyrimidine-5-amine], which melting point is on record?
**A.** 228.4 to 228.5 °C

**Q.** With `Nc1cccc(Cn2nnc3c(-c4cccs4)nc(N)nc32)c1` [Example 48, 3-(3-aminobenzyl)-7-(2-thienyl)-3H-[1,2,3]triazolo[4,5-d]pyrimidine-5-amine] as the compound, how does the melting point read?
**A.** 265.9 to 266 °C

**Q.** With `CN(Cc1cccc(Cn2nnc3c(-c4ccco4)nc(N)nc32)n1)S(C)(=O)=O` [Example 239, N-(6-(5-amino-7-(2-furyl)-3H-[1,2,3]triazolo[4,5-d]pyrimidin-3-ylmethyl)-2-pyridylmethyl)-N-methyl methanesulphonamide] as the compound, how does the melting point read?
**A.** 205.8 to 206 °C

**Q.** Which melting point does the source give for `Cc1c(N)cccc1Cn1nnc2c(-c3ccco3)nc(N)nc21` [Example 89, 3-(3-amino-2-methylbenzyl)-7-(2-furyl)-3H-[1,2,3]triazolo[4,5-d]pyrimidine-5-amine] here?
**A.** 247.1 to 247.2 °C

**Q.** Which melting point does the source give for `Nc1nc(-c2ccco2)c2nnn(Cc3cnccn3)c2n1` [Example 128, 7-(2-furyl)-3-(2-pyrazinylmethyl)-3H-[1,2,3]triazolo[4,5-d]pyrimidine-5-amine] here?
**A.** 129.1 to 131 °C

**Q.** For `Nc1nc(-c2ccco2)c2nnn(CC(=O)NCc3ccccn3)c2n1` [Example 53, (5-amino-7-(2-furyl)-3H-[1,2,3]triazolo[4,5-d]pyrimidin-3-yl)-N-(2-pyridylmethyl)acetamide], which melting point is on record?
**A.** 256.1 to 256.4 °C

**Q.** With `Nc1nc(-c2ccco2)c2nnn(Cc3cc(F)ccc3F)c2n1` [Example 65, 3-(2,5-difluorobenzyl)-7-(2-furyl)-3H-[1,2,3]triazolo[4,5-d]pyrimidine-5-amine] as the compound, how does the melting point read?
**A.** 208.1 to 208.2 °C

**Q.** Which melting point does the source give for `CC(C)(C)OC(=O)n1ccc2cccc(Cn3nnc4c(-c5ccco5)nc(N)nc43)c21` [Example 137, tert-butyl 7-(5-amino-7-(2-furyl)-3H-[1,2,3]triazolo[4,5-d]pyrimidine-3-ylmethyl)indole-1-carboxylate] here?
**A.** 176.3 to 176.5 °C

**Q.** With `Cc1ccc(-c2nc(N)nc3c2nnn3Cc2cccc(N)c2)o1` [Example 36, 3-(3-aminobenzyl)-7-(5-methyl-2-furyl)-3H-[1,2,3]triazolo[4,5-d]pyrimidine-5-amine] as the compound, how does the melting point read?
**A.** 231.7 to 234 °C

**Q.** Which melting point does the source give for `C=CCOCc1cccc(Cn2nnc3c(-c4ccco4)nc(N)nc32)n1` [Example 185, 3-(6-allyloxymethyl-2-pyridylmethyl)-7-(2-furyl)-3H-[1,2,3]triazolo[4,5-d]pyrimidine-5-amine] here?
**A.** 155.6 to 157.1 °C

**Q.** For `Cc1cc(Cn2nnc3c(-c4ccco4)nc(N)nc32)ccc1[N+](=O)[O-]` [Example 94, 7-(2-furyl)-3-(3-methyl-4-nitrobenzyl)-3H-[1,2,3]triazolo[4,5-d]pyrimidine-5-amine], which melting point is on record?
**A.** 237.8 to 238 °C

**Q.** For `Cc1cccnc1Cn1nnc2c(-c3ccco3)nc(N)nc21` [Example 95, 7-(2-furyl)-3-(3-methyl-2-pyridylmethyl)-3H-[1,2,3]triazolo[4,5-d]pyrimidine-5-amine], which melting point is on record?
**A.** 249.8 to 250 °C

**Q.** With `CC(=O)Nc1cccc(Cn2nnc3c(-c4ccco4)nc(N)nc32)c1` [Example 160] as the compound, how does the melting point read?
**A.** 277.4 to 277.9 °C

**Q.** Which melting point does the source give for `Nc1nc(-c2ccco2)c2nnn(Cc3cccc(CN4C(=O)c5ccccc5C4=O)n3)c2n1` [Example 164, 7-(2-furyl)-3-(6-phthalimidomethyl-2-pyridylmethyl)-3H-[1,2,3]triazolo[4,5-d]pyrimidine-5-amine] here?
**A.** 120.1 to 121 °C

**Q.** Which melting point does the source give for `CC(C)(C)OC(=O)NCc1ccccc1Cn1nnc2c(-c3ccco3)nc(N)nc21` [Example 157, tert-butyl N-(2-(5-amino-7-(2-furyl)-3H-[1,2,3]triazolo[4,5-d]pyrimidine-3-ylmethyl)benzyl)carbamate] here?
**A.** 204.2 to 204.4 °C

**Q.** Which melting point does the source give for `COCc1cccc(Cn2nnc3c(-c4ccc(C)o4)nc(N)nc32)n1` [Example 183, 3-(6-methoxymethyl-2-pyridylmethyl)-7-(5-methyl-2-furyl)-3H-[1,2,3]triazolo[4,5-d]pyrimidine-5-amine] here?
**A.** 152 to 153.5 °C

**Q.** For `Nc1nc(-c2ccco2)c2nnn(Cc3ccc(F)c([N+](=O)[O-])c3)c2n1` [Example 129, 3-(4-fluoro-3-nitrobenzyl)-7-(2-furyl)-3H-[1,2,3]triazolo[4,5-d]pyrimidine-5-amine], which melting point is on record?
**A.** 266.5 to 266.7 °C

**Q.** With `Nc1nc(-c2ccco2)c2nnn(Cc3ccc(F)c(N)c3)c2n1` [Example 165, 3-(3-amino-4-fluorobenzyl)-7-(2-furyl)-3H-[1,2,3]triazolo[4,5-d]pyrimidine-5-amine] as the compound, how does the melting point read?
**A.** 259.7 to 259.8 °C

**Q.** Which melting point does the source give for `Cc1ccc(-c2nc(N)nc3[nH]nnc23)o1` [Example 19, 7-(5-Methyl-2-furyl)-1H-[1,2,3]triazolo[4,5-d]pyrimidine-5-amine] here?
**A.** 291.8 to 292 °C

**Q.** Which melting point does the source give for `Nc1nc(-c2ccco2)c2nnn(Cc3cc4ccccc4[nH]3)c2n1` [Example 207, 3-(2-indolylmethyl)-7-(2-furyl)-3H-[1,2,3]triazolo[4,5-d]pyrimidine-5-amine] here?
**A.** 289.1 to 289.3 °C

**Q.** For `Nc1nc(-c2ccco2)c2nnn(CC(=O)Nc3ccccc3)c2n1` [Example 54, (5-amino-7-(2-furyl)-3H-[1,2,3]triazolo[4,5-d]pyrimidin-3-yl)-N-phenylacetamide], which melting point is on record?
**A.** 292.2 to 292.3 °C
